Experimental data: patent publication US6660885B2, “Polycyclic aryl and heteroaryl substituted benzenes useful for selective inhibition of the coagulation cascade” (Pharmacia Corporation, priority 2000, dated 2003)
Read-outs that look alike come from different tables or passages of the source.

Tests used:
Type in all cases: biochemical
[1] = biological target: T1, recombinant soluble tissue factor and recombinant human factor VIIa (TF-VIIa) (Homo sapiens, UniProt P08709); test: TF-VIIa Assay (chromogenic substrate hydrolysis, 405 nm); conditions: read-out: IF-VIIA IC50
T1 construct: purchased American Diagnostica, Greenwich Conn; soluble TF made in house in E. coli

[2] = biological target: T2, trypsin, type IX from porcine pancreas (Sus scrofa, UniProt P00761); test: Trypsin Assay (L-BAPNA, 405 nm)
T2 construct: purchased Sigma, St. Louis Mo; host or cells: porcine pancreas
Method: 5 ug/ml trypsin, type IX^0 from porcine pancreas and 0.375 mM N-α-Benzoyl-L-arginine-p-nitroanilide (L-BAPNA) are added to a 96-well assay plate containing either inhibitor or buffer (50 mM Tris-HCl, pH 8.0, 100 mM NaCl, 0.1% BSA). The reactions, in a final volume of 100 ul are measured immediately at 405 nm to determine background absorbance. The plate is incubated at room temperature for 60 min, at which time the rate of hydrolysis of the substrate is measured by monitoring the reaction at 405 nm for the release of p-nitroaniline. Percent inhibition of trypsin activity is calculated from OD405nm value from the experimental and control sample.
(§1) Recombinant soluble TF, consisting of amino acids 1-219 of the mature protein sequence was expressed in E. coli and purified using a Mono Q Sepharose FPLC. Recombinant human Vlla was purchased from American Diagnostica, Greenwich Conn. and chromogenic substrate N-Methylsulfonyl-D-phe-gly-arg-p-nitroaniline was prepared by American Peptide Company, Inc., Sunnyvale, Calif. Factor Xa was obtained from Enzyme Research Laboratories, South Bend Ind., thrombin from Calbiochem, La Jolla, Calif., and trypsin and L-BAPNA from Sigma, St. Louis Mo. The chromogenic substrates S-2765 and S-2238 were purchased from Chromogenix, Sweden.

human factor Xa = biological target: T3, human factor Xa (Homo sapiens, UniProt P00742); test: Xa Assay (chromogenic substrate S-2765, 405 nm)
T3 construct: leads from XII to XIIa to XIa to IXa and to the conversion of X to Xa; purchased Enzyme Research Laboratories, South Bend Ind
Method: 0.3 nM human factor Xa and 0.15 mM N-a-Benzyloxycarbonyl-D-arginyl-L-glycyl-L-arginine-p-nitroaniline-dihydrochloride (S-2765) are added to a 96-well assay plate containing either inhibitor or buffer (50 mM Tris-HCl, pH 8.0, 100 mM NaCl, 0.1% BSA). The reaction, in a final volume of 100 ul is measured immediately at 405 nm to determine background absorbance. The plate is incubated at room temperature for 60 min, at which time the rate of hydrolysis of the substrate is measured by monitoring the reaction at 405 nm for the release of p-nitroaniline. Percent inhibition of Xa activity is calculated from OD405nm value from the experimental and control sample.
as §1

human thrombin = human thrombin (Homo sapiens, UniProt P00734); test: Thrombin Assay (chromogenic substrate, 405 nm); conditions: for IC50: read-out: Thrombin II IC50; for Thrombin II percent inhibition: at 30 (uM)

T1 sequence (P08709 213-466 limits assumed): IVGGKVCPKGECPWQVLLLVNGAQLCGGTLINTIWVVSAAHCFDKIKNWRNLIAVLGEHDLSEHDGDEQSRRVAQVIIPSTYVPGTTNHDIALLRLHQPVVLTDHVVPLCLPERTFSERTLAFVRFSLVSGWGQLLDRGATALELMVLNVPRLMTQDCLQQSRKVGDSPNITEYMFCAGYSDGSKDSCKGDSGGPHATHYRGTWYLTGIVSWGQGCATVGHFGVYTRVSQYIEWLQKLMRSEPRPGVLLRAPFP
T1 sequence (P08709 61-212 limits assumed): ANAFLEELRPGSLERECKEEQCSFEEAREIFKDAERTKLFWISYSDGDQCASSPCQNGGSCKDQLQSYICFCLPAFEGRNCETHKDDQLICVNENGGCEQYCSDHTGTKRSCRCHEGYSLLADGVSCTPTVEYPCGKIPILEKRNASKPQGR
T1 sequence (P13726 33-251 partner limits assumed): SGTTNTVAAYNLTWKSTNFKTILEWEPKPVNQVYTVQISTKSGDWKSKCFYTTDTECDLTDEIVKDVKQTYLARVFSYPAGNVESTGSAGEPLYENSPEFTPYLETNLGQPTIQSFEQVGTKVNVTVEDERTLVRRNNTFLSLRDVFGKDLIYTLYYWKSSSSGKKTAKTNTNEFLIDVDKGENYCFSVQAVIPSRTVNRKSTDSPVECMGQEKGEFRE
T3 sequence (P00742 235-488 limits assumed): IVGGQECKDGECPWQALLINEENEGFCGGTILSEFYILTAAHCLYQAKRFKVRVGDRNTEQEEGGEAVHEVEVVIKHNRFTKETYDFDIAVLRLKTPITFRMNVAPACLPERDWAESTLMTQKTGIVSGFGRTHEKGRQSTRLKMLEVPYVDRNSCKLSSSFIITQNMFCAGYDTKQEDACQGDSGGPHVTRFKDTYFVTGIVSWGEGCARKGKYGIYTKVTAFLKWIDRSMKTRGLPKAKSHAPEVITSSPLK
T3 sequence (P00742 41-179 limits assumed): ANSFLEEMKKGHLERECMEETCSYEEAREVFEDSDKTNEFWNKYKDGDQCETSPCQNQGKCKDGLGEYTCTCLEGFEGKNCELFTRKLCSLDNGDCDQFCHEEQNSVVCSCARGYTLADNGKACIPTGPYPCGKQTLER
T2 sequence (P00761 9-231): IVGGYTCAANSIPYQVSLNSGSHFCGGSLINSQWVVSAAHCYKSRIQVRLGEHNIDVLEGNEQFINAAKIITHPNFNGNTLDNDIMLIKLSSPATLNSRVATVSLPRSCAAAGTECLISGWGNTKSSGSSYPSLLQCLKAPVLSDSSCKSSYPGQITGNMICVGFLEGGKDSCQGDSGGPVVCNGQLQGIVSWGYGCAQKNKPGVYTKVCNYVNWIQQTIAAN

| SMILES | IC50 [1] | IC50 ([2]; read-out: Trpysin II IC50) | Factor Xa percent inhibition (human factor Xa; at 30 (uM)) | IC50 (human thrombin) | IC50 (human factor Xa) | Factor Xa percent inhibition (human factor Xa; concentration not given) | Thrombin II percent inhibition (human thrombin) | IC50 [2] |
| --- | --- | --- | --- | --- | --- | --- | --- | --- |
| N=C(N)NCCCNC(=O)c1cc(NS(=O)(=O)Cc2ccccc2)ccc1Sc1ccccc1 [Example 6] | > 100 µM | > 100 µM | – | > 100 µM | > 100 µM | – | – | – |
| Cl.N=C(N)c1ccc(CNC(=O)c2cc(NS(=O)(=O)Cc3ccccc3)ccc2Sc2ccccc2)cc1 [Example 4] | – | – | – | – | – | – | 22% at 30 | 0.3 µM |
| N=C(N)NCCCCCNC(=O)c1cc(NS(=O)(=O)Cc2ccccc2)ccc1Sc1ccccc1 [Example 8] | > 100 µM | > 100 µM | – | > 100 µM | > 100 µM | – | – | – |
| O=C(Cc1c(F)ccc(NS(=O)(=O)Cc2ccccc2)c1F)NCc1ccncc1 [Example 11] | – | > 30 µM | – | > 30 µM | > 30 µM | – | – | – |
| CN(C)c1ccc(CNC(=O)c2cc(NS(=O)(=O)Cc3ccccc3)ccc2Sc2ccccc2)cc1 [Example 2] | – | > 30 µM | – | > 30 µM | – | – | – | – |
| O=C(Cc1c(F)ccc(NS(=O)(=O)Cc2ccccc2)c1F)NCCCn1ccnc1 [Example 12] | – | > 30 µM | – | > 30 µM | – | – | – | – |
| N=C(N)c1cccc(CNC(=O)Cc2c(F)ccc(NS(=O)(=O)Cc3ccccc3)c2F)c1 [Example 13] | – | > 30 µM | – | > 30 µM | > 30 µM | – | – | – |
| N=C(N)NCCCCNC(=O)c1cc(NS(=O)(=O)Cc2ccccc2)ccc1Sc1ccccc1 [Example 7] | > 100 µM | > 100 µM | – | > 100 µM | > 100 µM | – | – | – |
| CN(C)c1ccc(CNC(=O)Cc2c(F)ccc(NS(=O)(=O)Cc3ccccc3)c2F)cc1 [Example 10] | – | > 30 µM | – | > 30 µM | > 30 µM | – | – | – |
| O=C(NCC1CCNCC1)c1cc(NS(=O)(=O)Cc2ccccc2)ccc1Sc1ccccc1 [Example 1] | – | 0.3 µM | – | > 30 µM | > 30 µM | – | – | – |

Second part, led by results:

| IC50 [1] | IC50 ([2]; read-out: Trpysin II IC50) | Factor Xa percent inhibition (human factor Xa; at 30 (uM)) | IC50 (human thrombin) | IC50 (human factor Xa) | Factor Xa percent inhibition (human factor Xa; concentration not given) | SMILES | Thrombin II percent inhibition (human thrombin) | IC50 [2] |
| --- | --- | --- | --- | --- | --- | --- | --- | --- |
| 16.4 µM | 0.8 µM | 1% at 30 | 1.6 µM | – | – | N=C(N)c1ccc(CNC(=O)Cc2c(F)ccc(NCCc3ccccc3)c2F)cc1 [Example 16] | – | – |
| 25 µM | 0.5 µM | – | 9.5 µM | > 30 µM | – | COc1c(NCCc2ccccc2)ccc(-c2ccccc2)c1CC(=O)NCc1ccc(C(=N)N)cc1 [Example 18] | – | – |
| – | > 30 µM | – | > 30 µM | – | – | O=C(NCc1ccncc1)c1cc(NS(=O)(=O)Cc2ccccc2)ccc1Sc1ccccc1 [Example 3] | – | – |
| > 30 µM | 23 µM | 7% at 30 | – | – | – | N=C(N)c1cccc(CNC(=O)c2cc(NS(=O)(=O)Cc3ccccc3)ccc2Sc2ccccc2)c1 [Example 5] | 43% at 30 | – |
| – | > 30 µM | – | > 30 µM | – | – | N=C(N)NCCCCCNC(=O)Cc1c(F)ccc(NS(=O)(=O)Cc2ccccc2)c1F [Example 15] | – | – |
| – | < 0.04 µM | – | – | – | 18% | CC(C)Nc1ccc(-c2cccc(N)c2)c(CC(=O)NCc2ccc(C(=N)N)cc2)c1F [Example 21] | – | – |
| 2.7 µM | 0.2 µM | – | 7 µM | – | – | N=C(N)c1ccc(CNC(=O)Cc2c(-c3ccccc3)ccc(NCCc3ccccc3)c2O)cc1 [Example 19] | – | – |
| 14.7 µM | 0.1 µM | – | 7.9 µM | – | – | COc1c(NC(C)C)ccc(-c2ccccc2)c1CC(=O)NCc1ccc(C(=N)N)cc1 [Example 22] | – | – |
| – | 0.3 µM | – | > 30 µM | – | – | O=C(Cc1c(F)ccc(NS(=O)(=O)Cc2ccccc2)c1F)NCC1CCNCC1 [Example 9] | – | – |
| 4 µM | 0.2 µM | – | 7 µM | – | – | N=C(N)c1ccc(CNC(=O)Cc2c(-c3ccccc3)ccc(NCCc3ccccc3)c2F)cc1 [Example 17] | – | – |
| – | 7.3 µM | – | ~30 µM | – | – | N=C(N)c1ccc(CNC(=O)Cc2c(F)ccc(NS(=O)(=O)Cc3ccccc3)c2F)cc1 [Example 14] | – | – |
| 0.67 µM | 0.2 µM | – | 9 µM | > 30 µM | – | N=C(N)c1ccc(CNC(=O)Cc2c(-c3cccc(N)c3)ccc(NCc3ccccc3)c2F)cc1 [Example 20] | – | – |
